Source: patent US9174991B2, “Crystalline form of pemetrexed disodium” (Azad Pharmaceutical Ingredients AG, priority 2009, dated 2015)
Where a name gives a salt, the structure may show the parent alone. Read-outs that look alike come from different tables or passages of the source.

How the values were obtained:
[1] = Barnett et al., Organic Process Research & Development, 1999, 3, 184-188; cited from earlier work
[2] = starting material, before storage
Protocol: HPLC analysis was done on an Agilent 1100 system equipped with DAD detector using a Zorbax SB-Phenyl column (150×4.6 mm, 3 μm). Measurements were done at 230 nm wavelengths at 25° C. using a flow of 1.0 mL/min and 8 min post-run time. As mobile phase water containing 0.03% TFA and acetonitrile containing 0.025% TFA were used, solvents were HPLC grade. Sample preparation: 10 mg sample in 25 mL water:ACN=1:1, 5 uL injection. Retention time Pemetrexed Disodium: 10.3 min.
PXRD: Routine PXRD measurements were carried out on a Bruker AXS D8Advance diffractometer equipped with CuKα source with CuKβ filter and a VANTEC detector (Ser. No.: 202964). Measurement parameters: 3° 2theta to 39.9° 2theta, step time: 2s, step size: 0.022°, T=25° C., X-ray generator: 35 kV/40 mA.

[3] = 70° C., 5 mbar; for change in HPLC-purity upon vacuum drying (in words): up to 9 d
Protocol: (§1) To investigate the stability of the different forms of Pemetrexed Disodium a stability test concerning storage at different relative humidity, storage in the presence of light and stability under drying conditions was carried out.
Four samples were stored at 70° 5 mbar in laboratory vacuum oven. IPC were taken after 2 d, 9 d
(§2) HPLC analysis was done on an Agilent 1100 system equipped with DAD detector using a Zorbax SB-Phenyl column (150×4.6 mm, 3 μm). Measurements were done at 230 nm wavelengths at 25° C. using a flow of 1.0 mL/min and 8 min post-run time. […] Sample preparation: 10 mg sample in 25 mL water:ACN=1:1, 5 uL injection.

[4] = for H2O (KFT) / HPLC-purity (10.5 min) / PXRD / HPLC-purity: dark, air; for change in HPLC purity in any of the samples (in words): all relative humidities tested (5% to 70%)
[5] = for change in HPLC purity in the presence of light (in words) / change in color in the presence of light (in words): text says after 16 d
Protocol: as §1
The samples were stored in double PE plastic bags and exposed to daylight IT=20° C. to 25° C. IPCs were taken after 15 d.
as §2

[6] = 5% to 12% relative humidity, 2 d, measured 11.7% (Form A 5.8%), 23° C.
[7] = 5% to 12% relative humidity, 5 d, measured 9.5% (Form A 5.3%), 24° C.
[8] = 5% to 12% relative humidity, 9 d, measured 9% (Form A 6%), 24° C.
[9] = 5% to 12% relative humidity, 16 d, measured 8.5% (Form A 5.8%), 24° C.
[10] = 27% to 33% relative humidity, 2 d, measured 29.8% (Form A 28%), 23° C.
[11] = 27% to 33% relative humidity, 5 d, measured 29% (Form A 27%), 24° C.
[12] = 27% to 33% relative humidity, 9 d, measured 31% (Form A 30%), 24° C.
[13] = 27% to 33% relative humidity, 16 d, measured 30.4% (Form A 28.7%), 24° C.
[14] = 39% to 50% relative humidity, 2 d, measured 41.1% (Form A 39%), 23° C.
[15] = 39% to 50% relative humidity, 5 d, measured 42.8% (Form A 38.6%), 24° C.
[16] = 39% to 50% relative humidity, 9 d, measured 48% (Form A 47%), 24° C.
[17] = 39% to 50% relative humidity, 16 d, measured 47.3% (Form A 46.4%), 24° C.
[18] = 60% to 70% relative humidity, 2 d, measured 61%, 22° C. (Form A 54%, 23° C)
[19] = 60% to 70% relative humidity, 5 d, measured 63% (Form A 57%), 24° C.
[20] = 60% to 70% relative humidity, 9 d, measured 69% (Form A 68%), 24° C.
[21] = 60% to 70% relative humidity, 16 d, measured 66.9% (Form A 67.2%), 24° C.
[22] = double PE plastic bags, daylight, 20° C. to 25° C., 15 d
[23] = daylight, listed as Pemetrexed Disodium Form IV
[24] = 2 d, listed as Pemetrexed Disodium Heptahydrate

SMILES: Nc1nc(O)c2c(CCc3ccc(C(=O)N[C@@H](CCC(=O)O)C(=O)O)cc3)c[nH]c2n1 [disodium salt II, disodium N-[4-[2-(2-amino-4,7-dihydro-4-oxo-3H-pyrrolo[2,3-d]-pyrimidin-5-yl)ethyl]benzoyl]-L-glutamic acid salt]
- hygroscopicity (in words) [1]: hygroscopic solid

SMILES: Nc1nc(O)c2c(CCc3ccc(C(=O)N[C@@H](CCC(=O)O)C(=O)O)cc3)c[nH]c2n1 [2.5 hydrate, disodium N-[4-[2-(2-amino-4,7-dihydro-4-oxo-3H-pyrrolo[2,3-d]-pyrimidin-5-yl)ethyl]benzoyl]-L-glutamic acid salt]
- HPLC-purity (10.5 min) [2]: 99.86%
- PXRD [2]: 2.5 hydrate
- HPLC-purity (10.5 min) ([3]; 2 d): 99.88%
- PXRD ([3]; 2 d): 2.5 hydrate
- HPLC-purity (10.5 min) ([3]; 9 d): 99.80%
- H2O (KFT) ([3]; 9 d, listed as Pemetrexed Disodium 2.5 hydrate): 7.9%
- change in HPLC-purity upon vacuum drying (in words) [3]: no significant change
- change in water content (in words) ([4]; 5% to 12% rel. humidity (for Form A and Form IV: 7% to 12%), up to 16 d, listed as Pemetrexed Disodium 2.5 hydrate): no significant change
- change in HPLC-purity (in words) ([4]; 5% to 12% rel. humidity (text for Form A: 7% to 12%), up to 16 d, listed as Pemetrexed Disodium 2.5 hydrate): no significant change
- H2O (KFT) [4, 6]: 8.9%
- HPLC-purity (10.5 min) [4, 6]: 99.74%
- PXRD [4, 6]: 2.5 hydrate
- HPLC-purity (10.5 min) [4, 7]: 99.82%
- PXRD [4, 7]: 2.5 hydrate
- HPLC-purity (10.5 min) [4, 8]: 99.90%
- PXRD [4, 8]: 2.5 hydrate
- HPLC-purity [4, 9]: 99.80%
- PXRD [4, 9]: 2.5 hydrate
- change in water content (in words) ([4]; 27% to 33% rel. humidity, up to 16 d, listed as Pemetrexed Disodium 2.5 hydrate): slight increase
- HPLC-purity [4, 10]: 99.82%
- PXRD [4, 10]: 2.5 hydrate
- HPLC-purity [4, 11]: 99.91%
- PXRD [4, 11]: 2.5 hydrate
- HPLC-purity [4, 12]: 99.84%
- PXRD ([4]; 27% to 33% relative humidity, 9 d, measured 31% (Form A 30%), 24° C., listed as Pemetrexed Disodium 2.5 hydrate): traces of Pemetrexed Disodium Heptahydrate
- HPLC-purity [4, 13]: 99.64%
- HPLC-purity [4, 14]: 99.83%
- PXRD ([4]; 39% to 50% relative humidity, 2 d, measured 41.1% (Form A 39%), 23° C., listed as Pemetrexed Disodium 2.5 hydrate): formation of Pemetrexed Disodium Heptahydrate
- HPLC-purity [4, 15]: 99.62%
- PXRD [4, 15]: Heptahydrate
- PXRD ([4]; 39% to 50% relative humidity, 5 d, measured 42.8% (Form A 38.6%), 24° C., listed as Pemetrexed Disodium 2.5 hydrate): transformation seems to be complete
- HPLC-purity [4, 16]: 99.74%
- PXRD [4, 16]: Heptahydrate
- HPLC-purity [4, 17]: 99.86%
- PXRD [4, 17]: Heptahydrate
- change in water content (in words) ([4]; 40% to 50% rel. humidity, up to 16 d, listed as Pemetrexed Disodium 2.5 hydrate): increase
- HPLC-purity [4, 18]: 99.73%
- PXRD [4, 18]: Heptahydrate
- PXRD ([4]; 60% to 70% relative humidity, 2 d, measured 61%, 22° C. (Form A 54%, 23° C), listed as Pemetrexed Disodium 2.5 hydrate): transformation to Pemetrexed Disodium Heptahydrate is complete
- HPLC-purity [4, 19]: 99.86%
- PXRD [4, 19]: Heptahydrate
- HPLC-purity [4, 20]: 99.84%
- PXRD [4, 20]: Heptahydrate
- HPLC-purity [4, 21]: 99.83%
- PXRD [4, 21]: Heptahydrate
- change in HPLC purity in any of the samples (in words) ([4]; up to 16 d): No significant change
- HPLC-purity ([5]; daylight study, Start): 99.73%
- change in HPLC purity in the presence of light (in words) ([5]; daylight): do not show significant changes
- change in color in the presence of light (in words) ([5]; daylight): do not show significant changes
- HPLC-purity [5, 22]: 99.74%

SMILES: Nc1nc(O)c2c(CCc3ccc(C(=O)N[C@@H](CCC(=O)O)C(=O)O)cc3)c[nH]c2n1 [Form IV, disodium N-[4-[2-(2-amino-4,7-dihydro-4-oxo-3H-pyrrolo[2,3-d]-pyrimidin-5-yl)ethyl]benzoyl]-L-glutamic acid salt]
- HPLC-purity (10.5 min) [2]: 99.85%
- PXRD [2]: Form IV
- HPLC-purity (10.5 min) ([3]; 2 d): 99.70%
- PXRD ([3]; 2 d): Form IV
- HPLC-purity (10.5 min) ([3]; 9 d): 99.80%
- change in water content upon vacuum drying (in words) ([3]; after 9 d): no significant change
- change in HPLC-purity upon vacuum drying (in words) ([3]; listed as Pemetrexed Disodium Form IV): no significant change
- change in water content (in words) ([4]; 5% to 12% rel. humidity (for Form A and Form IV: 7% to 12%), up to 16 d, listed as Pemetrexed Disodium Form IV): does not show significant change
- H2O (KFT) [4, 6]: 1.0%
- HPLC-purity (10.5 min) [4, 6]: 99.66%
- PXRD [4, 6]: Form IV
- HPLC-purity (10.5 min) [4, 7]: 99.60%
- PXRD [4, 7]: Form IV
- HPLC-purity (10.5 min) [4, 8]: 99.83%
- PXRD [4, 8]: Form IV
- HPLC-purity [4, 9]: 99.88%
- PXRD [4, 9]: Form IV
- change in water content (in words) ([4]; 27% to 33% rel. humidity, up to 16 d, listed as Pemetrexed Disodium Form IV): does not show significant change
- HPLC-purity [4, 10]: 99.81%
- PXRD [4, 10]: Form IV
- HPLC-purity [4, 11]: 99.73%
- PXRD [4, 11]: Form IV
- HPLC-purity [4, 12]: 99.82%
- PXRD [4, 12]: Form IV
- HPLC-purity [4, 13]: 99.86%
- PXRD [4, 13]: Form D
- HPLC-purity [4, 14]: 99.84%
- PXRD [4, 14]: Form IV
- HPLC-purity [4, 15]: 99.78%
- PXRD [4, 15]: Form IV
- HPLC-purity [4, 16]: 99.76%
- PXRD [4, 16]: Form IV
- PXRD ([4]; 39% to 50% relative humidity, 9 d, measured 48% (Form A 47%), 24° C., listed as Pemetrexed Disodium Form IV): without significant change
- HPLC-purity [4, 17]: 99.81%
- PXRD ([4]; 39% to 50% relative humidity, 16 d, measured 47.3% (Form A 46.4%), 24° C., listed as Pemetrexed Disodium Form IV): traces of Pemetrexed Disodium Heptahydrate
- change in water content (in words) ([4]; 40% to 50% rel. humidity, up to 16 d, listed as Pemetrexed Disodium Form IV): slight increase
- change in water content (in words) ([4]; 60% to 70% rel. humidity, after 2 d): significant increase
- HPLC-purity [4, 18]: 99.83%
- PXRD ([4]; 60% to 70% relative humidity, 2 d, measured 61%, 22° C. (Form A 54%, 23° C), listed as Pemetrexed Disodium Form IV): partial transformation to Pemetrexed Disodium Heptahydrate
- HPLC-purity [4, 19]: 99.75%
- PXRD [4, 19]: Heptahydrate
- PXRD ([4]; 60% to 70% relative humidity, 5 d, measured 63% (Form A 57%), 24° C., listed as Pemetrexed Disodium Form IV): Transformation to Pemetrexed Disodium Heptahydrate is complete
- HPLC-purity [4, 20]: 99.85%
- PXRD [4, 20]: Heptahydrate
- HPLC-purity [4, 21]: 99.81%
- PXRD [4, 21]: Heptahydrate
- change in HPLC purity in any of the samples (in words) ([4]; up to 16 d): No significant change
- HPLC-purity ([5]; daylight study, Start): 99.83%
- change in HPLC purity in the presence of light (in words) [5, 23]: slight decrease
- change in color in the presence of light (in words) [5, 23]: without significant change
- HPLC-purity [5, 22]: 99.44%

SMILES: Nc1nc(O)c2c(CCc3ccc(C(=O)N[C@@H](CCC(=O)O)C(=O)O)cc3)c[nH]c2n1 [Heptahydrate, disodium N-[4-[2-(2-amino-4,7-dihydro-4-oxo-3H-pyrrolo[2,3-d]-pyrimidin-5-yl)ethyl]benzoyl]-L-glutamic acid salt]
- HPLC-purity (10.5 min) [2]: 99.90%
- HPLC-purity (10.5 min) ([3]; 2 d): 99.86%
- PXRD ([3]; 2 d): 2.5 hydrate
- H2O (KFT) [3, 24]: 8.4%
- PXRD [3, 24]: only 2.5 hydrate
- HPLC-purity (10.5 min) ([3]; 9 d): 99.80%
- change in HPLC-purity upon vacuum drying (in words) ([3]; listed as Pemetrexed Disodium Heptahydrate): No significant change
- H2O (KFT) [4, 6]: 19.7%
- HPLC-purity (10.5 min) [4, 6]: 99.70%
- HPLC-purity (10.5 min) [4, 7]: 99.73%
- HPLC-purity (10.5 min) [4, 8]: 99.86%
- HPLC-purity [4, 9]: 99.88%
- PXRD ([4]; 5% to 12% relative humidity, 16 d, measured 8.5% (Form A 5.8%), 24° C., listed as Pemetrexed Disodium Heptahydrate): almost complete transformation to Pemetrexed Disodium 2.5 hydrate
- HPLC-purity [4, 10]: 99.74%
- HPLC-purity [4, 11]: 99.62%
- HPLC-purity [4, 12]: 99.84%
- HPLC-purity [4, 13]: 99.91%
- PXRD [4, 13]: Heptahydrate
- HPLC-purity [4, 14]: 99.84%
- HPLC-purity [4, 15]: 99.78%
- PXRD [4, 15]: Heptahydrate
- HPLC-purity [4, 16]: 99.81%
- PXRD [4, 16]: Heptahydrate
- HPLC-purity [4, 17]: 99.91%
- PXRD [4, 17]: Heptahydrate
- HPLC-purity [4, 18]: 99.63%
- HPLC-purity [4, 19]: 99.81%
- PXRD [4, 19]: Heptahydrate
- HPLC-purity [4, 20]: 99.81%
- PXRD [4, 20]: Heptahydrate
- HPLC-purity [4, 21]: 99.90%
- PXRD [4, 21]: Heptahydrate
- change in HPLC purity in any of the samples (in words) ([4]; up to 16 d): No significant change
- HPLC-purity ([5]; daylight study, Start): 99.63%
- change in HPLC purity in the presence of light (in words) ([5]; daylight): do not show significant changes
- change in color in the presence of light (in words) ([5]; daylight): do not show significant changes
- HPLC-purity [5, 22]: 99.65%
